Read-outs that look alike come from different tables or passages of the source.
How the values were obtained:
P. falciparum 3D7 = assay: Asexual blood stage growth inhibition, SYBR Green I, 72 h; format: cell-based; details: Plasmodium falciparum, mean (standard error) of 3 biological replicates
Protocol: (§1) Asexual blood stage P. falciparum strains, including 3D7 and drug-resistant field isolates, were cultured using standard conditions in RPMI 1640 with 0.5% Albumax as described previously. EC₅₀ values were determined using a SYBR Green I fluorescence assay after 72 h of compound exposure. EC50 values were derived by nonlinear regression in GraphPad Prism version 10.

P. falciparum 7G8 = assay: as above; format: cell-based; details: Plasmodium falciparum, mean (standard error) of 3 biological replicates
Protocol: as §1

P. falciparum Dd2-B2 = assay: as above; format: cell-based; details: Plasmodium falciparum, mean (standard error) of 3 biological replicates
Protocol: as §1

P. falciparum K1 = assay: as above; format: cell-based; details: Plasmodium falciparum, mean (standard error) of 3 biological replicates
Protocol: as §1

P. falciparum TM90_C2B = assay: as above; format: cell-based; details: Plasmodium falciparum, mean (standard error) of 3 biological replicates
Protocol: as §1

[1] = tested on: P. falciparum CamWT and CamC580Y; details: ring-stage assays; cited from earlier work
P. cynomolgi hypnozoite = assay: Hypnozoite formation in primary simian hepatocytes, high-content imaging; format: cell-based, Plasmodium cynomolgi
Protocol: (§2) Liver stage antimalarial activity was evaluated using sporozoites from P. falciparum (NF54 strain) and P. cynomolgi bastianellii (B strain). P. falciparum-infected Anopheles stephensi mosquitoes were reared at WRAIR, while P. cynomolgi-infected Anopheles dirus mosquitoes were obtained from the Armed Forces Research Institute of Medical Sciences (AFRIMS), Thailand. Sporozoites were isolated by dissecting salivary glands under sterile conditions, followed by gentle mechanical disruption. Freshly isolated sporozoites were immediately used for hepatocyte infection.
(§3) Primary cryopreserved hepatocytes were selected based on host-parasite compatibility: primary simian hepatocytes (lot OQB) for P. cynomolgi and human hepatocytes (lot BGW) for P. falciparum (BioIVT Inc., Baltimore, MD, USA). Cells were thawed according to the manufacturer’s protocol and seeded into 384-well collagen-coated assay plates (Greiner Bio-One, Monroe, NC, USA) using InVitroGro CP plating medium (BioIVT). Seeding densities were optimized for uniform monolayer formation, and hepatocytes were allowed to adhere for 24–48 hours before infection. Sporozoites were added at a 1:1.1 hepatocyte-to-sporozoite ratio within 48 hours post-seeding. Automated robotic systems were used for media changes and compound additions to ensure assay consistency and minimize variability associated with manual pipetting.
(§4) Test compounds (PfPKG inhibitors) and assay drug controls (KDU-691 and tafenoquine) were solubilized in DMSO or PBS and serially diluted into 8- or 12-point, 2- or 3-fold series, achieving final assay concentrations ranging from 20 µM to 0.019 µM. Compounds were introduced using a calibrated pin tool controlled by robotic arms (V&P Scientific), ensuring a 1:1000 dilution into assay wells. Media were replenished daily with fresh drug-containing HCM. […]
(§5) Cells were fixed using 4% paraformaldehyde for 20 minutes at room temperature, followed by three PBS washes, and stored at 4°C until further processing. Parasite detection was performed using species-specific primary antibodies, with P. cynomolgi parasites labeled using a mouse monoclonal anti-Plasmodium GAPDH antibody (1.6 μg/mL, European Malaria Reagent Repository) and P. falciparum parasites detected using a rabbit polyclonal anti-PfHSP70 antibody (1:70 dilution, LS Bio, USA). […]
(§6) High-content imaging was performed using the Operetta CLS system (Revvity) and image analysis was performed with Harmony software version 4.9 (Revvity, Waltham, MA, USA). Images were acquired at 10x or 20x magnification using DAPI and TRITC fluorescence channels. Following the established protocol, parasites were classified as hypnozoites or schizonts based on fluorescence intensity (mean and maximum), morphological features (cell roundness and size), and segmentation criteria. […]

P. cynomolgi schizont = assay: Schizont formation in primary simian hepatocytes, high-content imaging; format: cell-based, Plasmodium cynomolgi
Protocol: as §2, §3, §4, §5, §6

[2] = Cellular cytotoxicity, hepatocyte nuclear counts; format: cell-based, simian; details: simian, primary cryopreserved simian hepatocytes (lot OQB); cellular cytotoxicity
Source text: as §3
(§7) Test compounds (PfPKG inhibitors) and assay drug controls (KDU-691 and tafenoquine) were solubilized in DMSO or PBS and serially diluted into 8- or 12-point, 2- or 3-fold series, achieving final assay concentrations ranging from 20 µM to 0.019 µM. Compounds were introduced using a calibrated pin tool controlled by robotic arms (V&P Scientific), ensuring a 1:1000 dilution into assay wells. Media were replenished daily with fresh drug-containing HCM. Compounds were added 1-hour post-infection (p.i.) (day 0) and administered daily for 3 days. Cells were fixed on day 6 p.i. of P. falciparum culture and day 8 for P. cynomolgi infected culture, coinciding with liver stage schizont maturation.
(§8) High-content imaging was performed using the Operetta CLS system (Revvity) and image analysis was performed with Harmony software version 4.9 (Revvity, Waltham, MA, USA). Images were acquired at 10x or 20x magnification using DAPI and TRITC fluorescence channels. Following the established protocol, parasites were classified as hypnozoites or schizonts based on fluorescence intensity (mean and maximum), morphological features (cell roundness and size), and segmentation criteria. Hepatocyte nuclei were identified using Hoechst 33342 staining. Background signal was captured in uninfected, stained wells and subjected to the same parasite detection algorithm. Estimate erroneous parasite counts were then subtracted from infected well counts. Hepatocyte viability was determined by quantifying nuclear counts per well using Hoechst stain intensity thresholds. […] An in-house built Python-based image analysis script identified parasite objects using predefined fluorescence intensity thresholds. […] Parasite size was quantified by calculating the average object area (µm²) of validated parasite structures per well. […] Dose-response inhibition and IC50 were calculated relative to in-plate negative controls (DMSO-treated wells). […]

PfPKG [3] = biological target: PfPKG (Plasmodium falciparum, UniProt Q8I719); assay: PfPKG enzyme inhibition; format: biochemical
Chain of PfPKG (Plasmodium falciparum, UniProt Q8I719) (Q8I719 whole entry): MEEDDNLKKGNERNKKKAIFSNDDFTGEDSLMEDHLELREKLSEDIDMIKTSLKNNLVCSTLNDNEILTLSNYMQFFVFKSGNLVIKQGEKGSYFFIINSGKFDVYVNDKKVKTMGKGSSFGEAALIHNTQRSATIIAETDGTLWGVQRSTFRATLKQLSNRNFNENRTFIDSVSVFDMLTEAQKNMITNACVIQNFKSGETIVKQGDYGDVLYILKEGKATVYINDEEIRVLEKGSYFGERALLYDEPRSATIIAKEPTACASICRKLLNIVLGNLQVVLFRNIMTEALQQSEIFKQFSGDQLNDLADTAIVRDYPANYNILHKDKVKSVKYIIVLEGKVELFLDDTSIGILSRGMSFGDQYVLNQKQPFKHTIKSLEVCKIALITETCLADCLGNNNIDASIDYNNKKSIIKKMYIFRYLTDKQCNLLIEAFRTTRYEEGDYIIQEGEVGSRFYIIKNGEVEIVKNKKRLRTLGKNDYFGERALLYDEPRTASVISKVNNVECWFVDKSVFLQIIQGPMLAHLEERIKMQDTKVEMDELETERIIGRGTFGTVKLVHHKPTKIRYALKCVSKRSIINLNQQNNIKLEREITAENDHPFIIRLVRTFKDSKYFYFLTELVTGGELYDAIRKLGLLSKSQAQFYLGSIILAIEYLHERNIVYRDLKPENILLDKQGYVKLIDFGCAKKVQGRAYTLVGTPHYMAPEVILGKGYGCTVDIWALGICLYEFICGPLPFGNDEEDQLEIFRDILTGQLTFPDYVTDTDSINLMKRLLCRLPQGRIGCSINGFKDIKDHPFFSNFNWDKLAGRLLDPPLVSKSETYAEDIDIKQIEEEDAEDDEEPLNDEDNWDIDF

CIT = biological target: T1, CIT (Homo sapiens, UniProt O14578); assay: KdElect binding affinity assay
T1 construct: purchased Eurofins (DiscoverX)
T1 sequence (O14578 whole entry): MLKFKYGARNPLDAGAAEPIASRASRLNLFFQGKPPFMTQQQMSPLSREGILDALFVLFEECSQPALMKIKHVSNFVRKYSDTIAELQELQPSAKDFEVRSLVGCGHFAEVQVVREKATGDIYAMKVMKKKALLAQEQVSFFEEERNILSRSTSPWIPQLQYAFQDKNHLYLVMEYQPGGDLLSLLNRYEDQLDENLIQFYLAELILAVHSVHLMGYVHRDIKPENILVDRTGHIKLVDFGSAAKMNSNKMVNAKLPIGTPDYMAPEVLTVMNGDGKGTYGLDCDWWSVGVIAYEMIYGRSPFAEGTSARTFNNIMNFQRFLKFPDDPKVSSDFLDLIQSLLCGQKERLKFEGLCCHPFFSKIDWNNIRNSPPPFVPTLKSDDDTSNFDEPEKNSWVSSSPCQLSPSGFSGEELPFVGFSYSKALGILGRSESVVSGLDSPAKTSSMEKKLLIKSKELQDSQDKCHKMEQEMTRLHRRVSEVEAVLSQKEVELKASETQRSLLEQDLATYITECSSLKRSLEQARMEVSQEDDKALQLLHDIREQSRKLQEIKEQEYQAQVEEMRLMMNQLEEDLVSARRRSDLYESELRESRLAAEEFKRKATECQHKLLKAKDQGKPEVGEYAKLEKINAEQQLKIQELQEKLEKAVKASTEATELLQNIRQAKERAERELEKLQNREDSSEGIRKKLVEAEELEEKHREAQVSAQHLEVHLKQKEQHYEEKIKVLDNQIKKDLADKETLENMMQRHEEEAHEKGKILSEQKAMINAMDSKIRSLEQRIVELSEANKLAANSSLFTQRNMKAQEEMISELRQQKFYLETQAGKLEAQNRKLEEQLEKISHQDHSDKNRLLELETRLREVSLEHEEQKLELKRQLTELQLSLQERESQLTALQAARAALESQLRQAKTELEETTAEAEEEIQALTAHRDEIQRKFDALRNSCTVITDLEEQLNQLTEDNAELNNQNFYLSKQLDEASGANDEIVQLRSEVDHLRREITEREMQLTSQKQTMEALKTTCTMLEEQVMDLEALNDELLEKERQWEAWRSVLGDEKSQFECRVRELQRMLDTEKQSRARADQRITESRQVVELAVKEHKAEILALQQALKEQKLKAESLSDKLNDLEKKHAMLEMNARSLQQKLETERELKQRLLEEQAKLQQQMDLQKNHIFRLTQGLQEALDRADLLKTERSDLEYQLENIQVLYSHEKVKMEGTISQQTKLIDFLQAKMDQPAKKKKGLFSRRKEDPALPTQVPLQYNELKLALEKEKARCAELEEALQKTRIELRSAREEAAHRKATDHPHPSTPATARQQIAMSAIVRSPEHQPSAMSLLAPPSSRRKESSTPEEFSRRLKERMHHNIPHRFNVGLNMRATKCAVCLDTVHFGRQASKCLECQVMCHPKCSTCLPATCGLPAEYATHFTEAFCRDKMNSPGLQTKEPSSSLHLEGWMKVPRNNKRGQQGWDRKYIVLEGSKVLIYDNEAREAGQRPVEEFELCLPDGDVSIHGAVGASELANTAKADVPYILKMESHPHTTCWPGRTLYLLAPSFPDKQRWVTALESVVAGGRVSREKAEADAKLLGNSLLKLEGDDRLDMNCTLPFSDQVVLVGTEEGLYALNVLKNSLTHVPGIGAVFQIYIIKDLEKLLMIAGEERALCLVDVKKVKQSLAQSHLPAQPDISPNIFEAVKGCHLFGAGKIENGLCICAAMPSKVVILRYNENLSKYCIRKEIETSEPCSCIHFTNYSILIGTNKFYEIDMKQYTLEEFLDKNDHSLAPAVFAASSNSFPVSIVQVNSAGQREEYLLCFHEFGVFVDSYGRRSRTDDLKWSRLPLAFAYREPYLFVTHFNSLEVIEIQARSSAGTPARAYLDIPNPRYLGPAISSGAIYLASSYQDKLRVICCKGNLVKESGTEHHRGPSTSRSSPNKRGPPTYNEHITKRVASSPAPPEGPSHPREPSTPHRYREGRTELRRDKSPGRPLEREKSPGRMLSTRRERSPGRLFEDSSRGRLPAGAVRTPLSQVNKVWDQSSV
Protocol: Off-target kinase inhibition was assessed using the DiscoverX scanMAX (Eurofins) panel at 1 µM compound concentration. Binding affinities of CIT, ROCK1 and ROCK2 were evaluated using the KdElect assay (Eurofins).

PfPKG [4] = details: cited from earlier work
[5] = tested on: P. falciparum sporozoites; assay: Sporozoite infection of primary human hepatocytes, high-content imaging; format: cell-based, Plasmodium falciparum
Protocol: as §2, with “infection. […]” for “infection.”
as §5
High-content imaging was performed using the Operetta CLS system (Revvity) and image analysis was performed with Harmony software version 4.9 (Revvity, Waltham, MA, USA). Images were acquired at 10x or 20x magnification using DAPI and TRITC fluorescence channels. […]

[6] = tested on: primary human hepatocytes; assay: Cellular cytotoxicity, hepatocyte nuclear counts; format: cell-based; details: cellular cytotoxicity
Source text: as §3
Test compounds (PfPKG inhibitors) and assay drug controls (KDU-691 and tafenoquine) were solubilized in DMSO or PBS and serially diluted into 8- or 12-point, 2- or 3-fold series, achieving final assay concentrations ranging from 20 µM to 0.019 µM. […]
as §8, with “Hepatocyte nuclei were identified using Hoechst 33342 staining. Background signal was captured in uninfected, stained wells and subjected to the same parasite detection algorithm. Estimate erroneous parasite counts were then subtracted from infected well counts.” left out

[7] = tested on: primary simian hepatocytes; assay: Cellular cytotoxicity, hepatocyte nuclear counts; format: cell-based
Source text: as §3, §7, §8

[8] = Plasmodium cynomolgi, Hepatocyte
[9] = from IC50 ≈ Kd, ∆G = -RTln(Kd), 300K

SMILES	IC50 (P. falciparum 3D7)	IC50 (P. falciparum 7G8)	IC50 (P. falciparum Dd2-B2)	IC50 (P. falciparum K1)	IC50 (P. falciparum TM90_C2B)	IC50 against DHA-sensitive CamWT compared with DHA-resistant CamC580Y [1]	other results
C[C@H]1CN(C)CC[C@@H]1c1cc(-c2ccncc2)c(-c2ccc(F)cc2)[nH]1.Cl.Cl [RUPB-59, 4-{5-[(3R,4S)-1,3-Dimethylpiperidin-4-yl]-2-(4-fluorophenyl)-1H-pyrrol-3-yl}pyridine Dihydrochloride]	80 nM	135 nM	353 nM	148 nM	120 nM	similar	
COc1cc(C)c2c(Oc3cccc(C(F)(F)F)c3)c(OC)cc(NC(C)CCCN)c2n1 (stereo not drawn) [Tafenoquine, tafenoquine]							IC50 (P. cynomolgi hypnozoite; [8]): 85 nM; IC50 (P. cynomolgi schizont; [8]): 41 nM; CC50 at 3 days [2]: 3600 nM
CN1CCC(c2cc(-c3ccncc3)c(-c3ccc(F)c(C(C)(C)O)c3)[nH]2)CC1 [RUPB-69, 2-(2-Fluoro-5-(5-(1-methylpiperidin-4-yl)-3-(pyridin-4-yl)-1H-pyrrol-2-yl)phenyl)propan-2-ol]							improvement in PfPKG IC50 compared to RUPB-61 (PfPKG [3]): 10 fold; PfPKG (ΔG) (PfPKG [3]; [9]): -12.1 kcal/mol; PfPKG Experimental Binding (ΔG) (PfPKG [3]; [9]): -12.1 kcal/mol; Kd for CIT higher compared to RUPB-61 (CIT; range over RUPB-18, -34, -69): 5–125 fold; Kd (CIT; read-out: CIT Experimental Kd): 210 nM
C[C@H]1[C@@H](O)O[C@@H]2O[C@@]3(C)CC[C@H]4[C@H](C)CC[C@@H]1[C@@]24OO3 [DHA, dihydroartemisinin, reference compound]	2 nM	0.5 nM	3 nM	2 nM			
C[C@@H]1CN(C)CC[C@H]1c1cc(-c2ccncc2)c(-c2ccc(F)cc2)[nH]1.Cl.Cl [RUPB-60, 4-{5-[(3S,4R)-1,3-Dimethylpiperidin-4-yl]-2-(4-fluorophenyl)-1H-pyrrol-3-yl}pyridine Dihydrochloride]	50 nM	28 nM	144 nM	81 nM	80 nM	similar	IC50 against PfPKG variants, RUPB-60 compared with RUPB-61 (PfPKG [4]): similar
CNC(=O)c1ccc(-c2cnc3cnc(C(=O)N(C)c4ccc(Cl)cc4)cn23)cc1 [KDU-691]							IC50 [5]: 51 nM; IC50 (P. cynomolgi hypnozoite): 110 nM; IC50 (P. cynomolgi schizont): 42 nM; CC50 [6]: > 10000 nM; CC50 [7]: > 10000 nM

— paper PMC13422867, “An orally available PfPKG inhibitor blocks Plasmodium’s infection of the liver” (PLOS Pathogens, 2026)
